pIC50: −log10 of the molar value.
Tests used:
[1] = target: estrogen receptor α in MCF7 cells (Homo sapiens (Human), UniProt P03372); assay: Estrogen Receptor (ER) Degradation Assay (In-Cell Western); format: cell-based; conditions: for pIC50: 24 hours, In-Cell Western; for % Estrogen Receptor Remaining: vehicle set to 100%
Procedure: A screening strategy was implemented utilizing an In-Cell Western assay to measure their ability to degrade the estrogen receptor in vitro. MCF7 cells, which are estrogen receptor positive, were plated at a cell density of […] into black walled clear bottom 96-well plates. Cells were incubated in phenol red free Dulbecco's Modified Eagle Media (DMEM) supplemented with 8% charcoal-stripped fetal bovine calf serum for 24 hours in a humidified 37° C. incubator. Concentrated stock compounds were diluted to 10× in complete media. Compounds were added to the plated cells in a dose-dependent manner ranging from 1E-12 to 1E-05 M and incubated for an additional 24 hours at 37° C. Culture medium was removed from the culture plates by gentle inversion. Cells were fixed in 4% paraformaldehyde in 1× phosphate buffered saline-calcium magnesium free (PBS-CMF) for 15 minutes at room temperature, washed 3 times for 5 minutes each in 1×PBS-CMF. Cells were permeabilized in immunofluorescence (IF) blocking buffer (Cell Signaling #12411) containing 0.3% Triton X100. Cells were washed 3 times for 5 minutes each in 1×PBS-CMF and incubated in estrogen receptor α (D6R2W) rabbit primary antibody (Cell Signaling #13258) diluted 1:300 in IF antibody dilution buffer (Cell Signaling #12378). Cells were washed 3 times for 5 minutes each in 1×PBS-CMF and stained with goat anti-rabbit (Biotium #CF770) secondary antibody diluted 1:2000 in IF antibody dilution buffer and normalizing stain CellTag 700 diluted 1:500 (Licor #926-41090). ER protein expression was assessed by the Licor Odyssey CLx imaging system using Image Studio v5.2. Data is processed utilizing GraphPad Prism 7 by subtracting background from the vehicle and setting the vehicle to 100% ER activity, followed by comparing treated samples to vehicle. This procedure was used to produce the graph in FIG. 2, FIG. 3, FIG. 4, FIG. 5, FIG. 6, FIG. 7, and FIG. 8.
(§1) In the below table for the Estrogen Receptor Degradation Assay and the Human ERα Reporter Assay: […]

[2] = target: human estrogen receptor (ERα) (Homo sapiens (Human), UniProt P03372); assay: Human ERα Reporter Assay (Indigo Biosciences); format: cell-based; conditions: antagonist mode, 17β-estradiol 8E-10 M, 24 hours
Procedure: All reagents used in this assay was supplied in the Human ERα Reporter Assay by Indigo Biosciences # IB00401. In an effort to screen selective estrogen receptor degraders (SERDs), the Human ERα Reporter Assay, supplied by Indigo Biosciences, was utilized to quantify antagonist functional activity against the human estrogen receptor. Reporter cells were thawed at 37° C. and added to pre-warmed to 37° C. cell recovery medium (CRM). Stock concentration of 17β-estradiol was serially diluted in CRM. Diluted 17β-estradiol was added to CRM containing reporter cells resulting in a working concentration of 1.6 nM (2×). Cells plus 17β-estradiol were dispensed in a kit-supplied white walled 96-well plate. Concentrated stocks of test compounds were diluted to 2× working concentrations in cell screening medium (CSM). 2× concentrated compounds were added to the plated cells in a dose-dependent manner resulting in a final concentration range of 1E-11 to 1E-5 M and a final 17β-estradiol concentration of 8E-10 M. Assay plates were incubated for 24 hours in a humidified 37° C. incubator. Culture medium was removed from the assay plates by inversion. Detection substrate and buffer was warmed to room temperature, mixed thoroughly, and immediately added to the assay plates. Assay plates were incubated for 15 minutes at room temperature protected from light. Luminescence was measured in a Synergy HTX luminescence plate reader. Data is processed utilizing GraphPad Prism 7 by graphing the relative light units measured at each compound concentration. This procedure was used to produce the graph in FIG. 1, FIG. 9, FIG. 10, FIG. 11, FIG. 12, FIG. 13, and FIG. 14.
as §1

Chain of human estrogen receptor (ERα) (P03372 whole entry): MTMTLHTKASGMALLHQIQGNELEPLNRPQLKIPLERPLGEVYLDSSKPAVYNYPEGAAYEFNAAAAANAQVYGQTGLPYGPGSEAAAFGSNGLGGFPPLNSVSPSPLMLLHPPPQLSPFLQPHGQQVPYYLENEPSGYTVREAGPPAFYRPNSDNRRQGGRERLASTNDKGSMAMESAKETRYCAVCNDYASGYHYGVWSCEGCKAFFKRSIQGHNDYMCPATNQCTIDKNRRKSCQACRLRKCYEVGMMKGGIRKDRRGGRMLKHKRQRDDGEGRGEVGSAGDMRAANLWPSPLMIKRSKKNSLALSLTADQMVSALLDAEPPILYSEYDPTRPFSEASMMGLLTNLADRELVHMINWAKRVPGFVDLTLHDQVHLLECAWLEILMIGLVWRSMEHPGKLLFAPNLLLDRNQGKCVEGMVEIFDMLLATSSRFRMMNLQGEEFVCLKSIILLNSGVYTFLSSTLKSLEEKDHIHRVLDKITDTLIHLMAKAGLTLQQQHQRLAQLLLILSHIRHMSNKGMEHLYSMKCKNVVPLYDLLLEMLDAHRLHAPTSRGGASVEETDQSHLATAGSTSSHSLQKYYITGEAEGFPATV
Chain of estrogen receptor α in MCF7 cells (P03372 whole entry): as above

Row | SMILES | pIC50 [1] | pIC50 [2] | % Estrogen Receptor Remaining [1]
1 | CCN(CC)CCc1ccc(Oc2c(C(=O)c3c(C)cc(F)cc3C)sc3cc(O)ccc23)cc1 [Compound 112, (3-(4-(2-(diethylamino)ethyl)phenoxy)-6-hydroxybenzo[b]thiophen-2-yl)(4-fluoro-2,6-dimethylphenyl)methanone] | > 6.00 | > 6.00 | *** (*** denotes 41-70% Estrogen Receptor remaining)
2 | CNCc1ccc(Oc2c(C(=O)c3c(C)cc(F)cc3C)sc3cc(O)ccc23)cc1 [Compound 113, (4-fluoro-2,6-dimethylphenyl)(6-hydroxy-3-(4-((methylamino)methyl)phenoxy)benzo[b]thiophen-2-yl)methanone] | > 6.00 | > 6.00 | *** (*** denotes 41-70% Estrogen Receptor remaining)

Continued, in another order:

Row | pIC50 [1] | pIC50 [2] | SMILES | % Estrogen Receptor Remaining [1]
3 | > 6.00 | > 6.00 | Cc1cc(F)cc(C)c1C(=O)c1sc2cc(O)ccc2c1Oc1ccc(CN)cc1 [Compound 115, (3-(4-(aminomethyl)phenoxy)-6-hydroxybenzo[b]thiophen-2-yl)(4-fluoro-2,6-dimethylphenyl)methanone] | *** (*** denotes 41-70% Estrogen Receptor remaining)
4 | > 6.00 | > 6.00 | CCC(CC)NCCc1ccc(Oc2c(C(=O)c3c(C)cc(F)cc3C)sc3cc(O)ccc23)cc1 [Compound 109, (4-fluoro-2,6-dimethylphenyl)(6-hydroxy-3-(4-(2-(pentan-3-ylamino)ethyl)phenoxy)benzo[b]thiophen-2-yl)methanone] | *** (*** denotes 41-70% Estrogen Receptor remaining)
5 | > 6.00 | > 6.00 | Cc1cc(F)cc(C)c1C(=O)c1sc2cc(O)ccc2c1Oc1ccc(N2CCCCC2)cc1 [Compound 101, (4-fluoro-2,6-dimethylphenyl)(6-hydroxy-3-(4-(piperidin-1-yl)phenoxy)benzo[b]thiophen-2-yl)methanone] | *** (*** denotes 41-70% Estrogen Receptor remaining)

Source: US10208011B2, “Benzothiophene estrogen receptor modulators” (G1 Therapeutics, Inc., priority 2017, dated 2019)
